From patent US20100076489A1, “WOUND CLOSURE MATERIAL” (priority 2007, published 2010)

Assay: Saturation concentration of paclitaxel in various release media (HPLC)
Format: physicochemical
Experimental: Paclitaxel concentrations were then measured with a Waters 2965 series HPLC (commercially available from Waters Corporation). A 20 μL from each sample was injected into a Phenomenex ODS-2 INERTSIL (5.0 μm, 150 mm×4.6, from Phenomenex) which was maintained at about 30° C. The sample runs were conducted for about 10 minutes, with a flow rate at 0.8 mL/minute. The mobile phase included about 55% acetonitrile and 45% water (v/v). The paclitaxel was detected at a wavelength of about 230 nm with a photodiode array detector (Waters series 2996, commercially available from Waters Corporation).
A release medium, including phosphate buffered saline (PBS) with about 0.1% of a polyethoxylated fatty acid ester of sorbitan (also referred to as polysorbates, commercially available as TWEEN™ 80) (w/v) and about 0.5% sodium dodecylsulfate (SDS) (w/v) was prepared as follows. About 100 mL of 10×PBS concentrate was added to a 1 liter volumetric flask. The flask was filled to the line with Milli-Q water and stirred for about 15 minutes. To the solution, about 1 mL of TWEEN™ 80 was added and stirred with a magnetic stir bar until the TWEEN™ 80 was completely dissolved. Approximately 5 grams of sodium dodecylsulfate was then added and the solution was stirred for about 45 minutes. The pH of the solution was tested and found to be about 7.3.
The saturation concentration of paclitaxel in various release media was determined using the previously mentioned high pressure liquid chromatography method. In addition to the release media including PBS with about 0.1% TWEEN™ 80 and 0.5% Sodium Dodecyl Sulfate described above, other media were similarly tested. The additional media included PBS with about 0.1% by weight PLURAFAC® surfactant (commercially available from BASF), PBS with about 0.1% by weight TWEEN™ 80, and PBS with about 0.8% by weight Dimethyl-b-Cyclodextrin. A summary of the results is provided below in Table 1.

With `CC(=O)O[C@H]1C(=O)[C@@]2(C)[C@H]([C@H](OC(=O)c3ccccc3)[C@]3(O)C[C@H](OC(=O)[C@H](O)[C@@H](NC(=O)c4ccccc4)c4ccccc4)C(C)=C1C3(C)C)[C@]1(OC(C)=O)CO[C@@H]1C[C@@H]2O` [Paclitaxel, paclitaxel] the “Saturation concentration of Paclitaxel” value (Media: PBS w/0.1% Plurafac) was 0.1 ± .01 µg/mL, the “Saturation concentration of Paclitaxel” value (Media: PBS w/0.1% TWEEN 80) was 2.2 ± 0.2 µg/mL and the “Saturation concentration of Paclitaxel” value (Media: PBS w/0.1% TWEEN 80 and 0.5% Sodium Dodecyl Sulfate) was 52.8 ± 6.4 µg/mL. For the same compound, the “Saturation concentration of Paclitaxel” value (Media: PBS w/0.8% Dimethyl-b-Cyclodextrin) was 7.3 µg/mL.
